Assay [1] is described as follows: microbe, parasite or virus in culture. The settings on record: Mycobacterium tuberculosis, 96 h, read-out: pIC50 (converted).
The nature of assay [2]: microbe, parasite or virus in culture. The conditions noted are these: Mycobacterium tuberculosis, 72 h, read-out: pIC50 (converted).

This note sets out measurements from ChEMBL document CHEMBL3988442, “University of Dundee, Small-Polar-MMV Screening Library” (2021).

`O=C(c1cc(C2CC2)on1)N1CCC(Oc2ncccc2Br)CC1`: the IC50 was 24.2 µM in assay [1] and over 50.1 µM in assay [2].

`CCNC(=O)c1cc(N2CCC(COC)CC2)ccn1`: the IC50 in assay [1] is over 501 µM; in assay [2] it was 125 µM.

For the molecule `Cc1cc(Cl)ccc1NC(=O)CSc1n[nH]c(N)n1`, the IC50 in assay [1] and in assay [2] was over 501 µM throughout.

As to `CC(C)c1csc(C(=O)N2CCOc3ncccc32)n1`, the IC50 in assay [1] was 231 µM; in assay [2], 139 µM.

Regarding `COc1cc(Oc2cnc3ccccc3n2)ccc1CN1CCCC1`, the IC50 was 13 µM in assay [1] and 9.42 µM in assay [2].

On to `Fc1ccccc1OC1CCN(CCn2cc3ccccc3n2)CC1`, for which the values for the IC50 in assay [1] and in assay [2] were 47.9 µM and over 50.1 µM, respectively.

As for `NCc1cnn(-c2ccc(Br)cc2)c1`, the IC50 in assay [1] is 196 µM; in assay [2], 147 µM.

In the case of `CN(C)C(=O)CN1CCCC1c1ccc(F)cc1` (centres undefined), the IC50 in assay [1] was 143 µM; in assay [2] it was 96.3 µM.

Regarding `CCc1ccccc1OCCN(C)C(=O)CN1CCCC1`, the IC50 is over 50.1 µM in assay [1] and 39.2 µM in assay [2].

For `Cc1cccc(-c2ccc(C(=O)N3CCSCC3)c(=O)[nH]2)c1`, the IC50 in assay [1] is over 50.1 µM; in assay [2] it was 36.1 µM.

As for `CS(=O)(=O)Cc1ccccc1NCc1ccsc1`, the IC50 in assay [1] was over 501 µM; in assay [2] it was 220 µM.

For the molecule `CC(=O)Nc1nc(C(=O)NCCOc2ccc(C)cc2)cs1`, the IC50 in assay [1] and in assay [2] was over 50.1 µM throughout.

As to `c1ccc2oc(NC3CCCN(Cc4noc(C5CC5)n4)C3)nc2c1` (centres undefined), the IC50 in assay [1] was 13.5 µM; in assay [2], 24.9 µM.

Consider `Cc1csc(N2CCCN(C(=O)c3cnsn3)CC2)n1`, for which the IC50 in assay [1] was over 501 µM; in assay [2], 284 µM.

`COc1ccc(CN(C)C(=O)C2CC2)cc1F`: the figures for the IC50 in assay [1] and in assay [2] were 255 µM and 211 µM, respectively.

With `CSc1nnc(CN(C)CCO)s1`, the results for the IC50 in assay [1] and in assay [2] were 56.6 µM and over 501 µM, respectively.

Take `CC(C)c1nnc(CN(C)Cc2ccccc2-c2ccccc2)o1`: the IC50 was 11.8 µM in assay [1] and 15.8 µM in assay [2].

As to `CCC(NC(=O)NCCCOC)C(C)C` (centres undefined), the IC50 in assay [1] and in assay [2] was over 501 µM in each case.

Regarding `CCOc1ccc(Cl)cc1CCNS(=O)(=O)N(C)C`, the IC50 in assay [1] is 282 µM; in assay [2], 245 µM.

As to `CN(Cc1cccc(C(N)=O)c1)C(=O)c1occc1Br`, the IC50 in assay [1] and in assay [2] was over 501 µM throughout.

For `COc1ccc([C@@H]2C[C@H](NC(C)=O)C[C@H](Cc3ccccc3)O2)cn1`, the IC50 in assay [1] was 28.3 µM; in assay [2], over 50.1 µM.

Regarding `CCN1CCN(S(=O)(=O)c2c[nH]c(C(C)C)n2)c2ccccc21`, the IC50 in assay [1] and in assay [2] was over 50.1 µM in each case.

As to `Cc1cc(C(=O)NCCCN(C)CC(F)(F)F)no1`, the IC50 in assay [1] and in assay [2] was over 501 µM throughout.

As for `OCC(Nc1ncccc1Br)c1ccccc1` (centres undefined), the IC50 was 327 µM in assay [1] and 184 µM in assay [2].

Turning to `O=c1c(Cc2ccccc2)c(O)ccn1Cc1cccs1`, the IC50 in assay [1] and in assay [2] was over 50.1 µM in each case.

For `COc1cccc(N2CCC(N)CC2)c1`, the IC50 was 213 µM in assay [1] and 426 µM in assay [2].

Regarding `O=C(CCN1CCCCC1)c1ccc2c(c1)OCO2`, the IC50 in assay [1] and in assay [2] was over 501 µM each time.

For the molecule `COCCNc1nc(-c2ccc(S(N)(=O)=O)cc2)cs1`, the IC50 in assay [1] is over 501 µM; in assay [2], 207 µM.

For `Cc1cccc(NCCCNC(=O)c2cccs2)n1`, the IC50 in assay [1] and in assay [2] was over 501 µM each time.

On to `CC(C)N1CC2(CCCN(Cc3noc(C4CCCC4)n3)C2)CCC1=O` (centres undefined), for which the IC50 in assay [1] and in assay [2] was over 50.1 µM throughout.

As to `Cc1[nH]c2ccc(C(N)=O)cc2c1C`, the IC50 in assay [1] was 41.9 µM; in assay [2], 20.8 µM.

As to `O=C(CNCC1CC1)Nc1ccccc1`, the figures for the IC50 in assay [1] and in assay [2] were over 501 µM and 171 µM, respectively.

Take `CCOCCOc1cc(C)ccc1CN`: the IC50 in assay [1] was over 501 µM; in assay [2], 208 µM.

With `CS(=O)(=O)NCC1CCCN(c2ncc(Cl)cc2F)C1` (centres undefined), the IC50 in assay [1] is over 501 µM; in assay [2], 159 µM.

Regarding `CC1CCCN1C1CCN(CCNS(C)(=O)=O)CC1` (centres undefined), the IC50 in assay [1] and in assay [2] was over 501 µM each time.

Consider `CC1CN(CCC(=O)NC(N)=O)CCO1` (centres undefined), for which the IC50 in assay [1] is 286 µM; in assay [2], 80.3 µM.

As to `O=C(NCC(CO)Cc1ccc(Cl)cc1)c1ccncc1Cl` (centres undefined), the IC50 in assay [1] and in assay [2] was over 50.1 µM in each case.

For the molecule `CCOc1ccc2cc(S(=O)(=O)NCCO)ccc2c1`, the IC50 was 9.01 µM in assay [1] and 5.84 µM in assay [2].

Turning to `NC(=O)C1CCN(Cc2ccc(S(=O)(=O)N3CCCC3)o2)CC1`, the IC50 in assay [1] and in assay [2] was over 50.1 µM in each case.

`CCc1nnsc1C(=O)NC(CC(C)C)C(=O)OC` (centres undefined): the IC50 in assay [1] and in assay [2] was over 50.1 µM in each case.

`CCOc1ccc(N(CC(=O)c2ccccc2)C2=NCCCCC2)cc1`: the IC50 in assay [1] was 27.6 µM; in assay [2], 22.4 µM.

Regarding `Cc1ncsc1C(=O)NC1CCCCNC1=O` (centres undefined), the IC50 in assay [1] and in assay [2] was over 501 µM throughout.

Regarding `CN(Cc1nc(CC2CC2)no1)CC1Cc2ccccc2O1` (centres undefined), the IC50 in assay [1] is 22.8 µM; in assay [2], 38 µM.

As to `Cc1ncc(CN(C)CC(O)COCc2ccco2)s1` (centres undefined), the IC50 in assay [1] and in assay [2] was over 501 µM throughout.

For `CC(Cn1cccn1)NCc1csc(-c2ccccc2F)n1` (centres undefined), the values for the IC50 in assay [1] and in assay [2] were 4.59 µM and 10.4 µM, respectively.

Consider `O=C(NCCN1CCCC1)c1ccc2ccccc2n1`, for which the IC50 in assay [1] was 249 µM; in assay [2] it was 146 µM.

As for `Cc1ccc(S(=O)(=O)N2CCOc3ccncc32)cc1`, the IC50 in assay [1] was 457 µM; in assay [2], 99.3 µM.

Take `CC(C)Oc1ccc(S(=O)(=O)N2CCC(N)C2)cc1` (centres undefined): the IC50 was over 501 µM in assay [1] and 212 µM in assay [2].

As to `CCCc1nn(Cc2csc(C(C)C)n2)c(=O)o1`, the IC50 was 20.4 µM in assay [1] and 3.08 µM in assay [2].

In the case of `COCCNS(=O)(=O)c1cccc2c1CN(C(=O)c1ccoc1)CC2`, the IC50 in assay [1] and in assay [2] was over 50.1 µM each time.

Consider `O=C(NCC(F)(F)F)C1CN(C(=O)c2cnccn2)C1`, for which the IC50 in assay [1] and in assay [2] was over 50.1 µM each time.

As for `CC(=O)c1ccccc1NC(=O)CN1CC[C@H](N)C1`, the IC50 is over 501 µM in assay [1] and 158 µM in assay [2].

On to `CC1CCCN(CC(=O)Nc2ccccc2C(N)=O)C1` (centres undefined), for which the results for the IC50 in assay [1] and in assay [2] were over 501 µM and 248 µM, respectively.

On to `COc1cccc2c1CCNCC2`, for which the IC50 in assay [1] was 348 µM; in assay [2] it was 271 µM.

For `O=C(O)[C@@H]1CN(C(=O)NCC2CCCCC2)C[C@H]1c1ccccn1`, the IC50 in assay [1] and in assay [2] was over 50.1 µM each time.

In the case of `Fc1ccc(C(NCc2nnc(-c3ccco3)o2)C2CCC2)cc1` (centres undefined), the IC50 in assay [1] is 4.62 µM; in assay [2] it was 0.884 µM.

With `c1ccc(CCc2n[nH]c(C3CCC3)n2)cc1`, the IC50 in assay [1] and in assay [2] was over 50.1 µM throughout.

With `CC(C)Cc1cc(C(=O)N(C)Cc2cnccn2)on1`, the IC50 in assay [1] and in assay [2] was over 501 µM throughout.

As to `COC(=O)C(NC(=O)c1ccc(NC2CC2)nc1)c1ccccc1` (centres undefined), the IC50 in assay [1] is 21.9 µM; in assay [2], over 50.1 µM.

With `COc1coc(CN2CCCC(CCc3ccc(F)c(F)c3)C2)cc1=O` (centres undefined), the results for the IC50 in assay [1] and in assay [2] were 14.3 µM and over 50.1 µM, respectively.

For the molecule `Nc1ncccc1C(=O)NCCC1=CCCCC1`, the figures for the IC50 in assay [1] and in assay [2] were over 501 µM and 230 µM, respectively.

`OCCNCCNCc1ccc(-c2ccccc2)o1`: the IC50 is 29.2 µM in assay [1] and 159 µM in assay [2].

Take `CC(=O)NCCCNCc1ccc(Br)c2cccnc12`: the results for the IC50 in assay [1] and in assay [2] were over 501 µM and 278 µM, respectively.

`CCC(=O)Nc1nnc2n(Cc3cccc(OC)c3)[nH]c(C)c1-2`: the IC50 in assay [1] and in assay [2] was over 50.1 µM each time.

As for `CCOC(=O)c1cccnc1NCc1cnn(C)c1C`, the IC50 in assay [1] is over 501 µM; in assay [2] it was 180 µM.

Turning to `O=C(Cc1cccs1)Nc1cnn(C2CCOC2)c1` (centres undefined), the IC50 in assay [1] and in assay [2] was over 50.1 µM each time.

For `CCOC(=O)C(C)Nc1ccc2oc(=O)[nH]c2c1` (centres undefined), the IC50 is 292 µM in assay [1] and 311 µM in assay [2].

For `Cc1n[nH]cc1CNCCNc1ncc(Cl)cc1Cl`, the IC50 was over 501 µM in assay [1] and 82.1 µM in assay [2].

As to `O=C1NC2(CCCN(C(=O)CCn3cccn3)C2)Oc2ccccc21` (centres undefined), the figures for the IC50 in assay [1] and in assay [2] were over 50.1 µM and 39.4 µM, respectively.

For the molecule `CCSc1ncc(CN2CCN(c3nc(C)cnc3C)CC2)cn1`, the IC50 in assay [1] is 28.7 µM; in assay [2], over 50.1 µM.

`COc1ncccc1CN(C)C(=O)c1ccccc1F`: the IC50 in assay [1] and in assay [2] was over 501 µM each time.

On to `O=C(CCc1ccccc1)N1CCCNCC1`, for which the IC50 in assay [1] was over 501 µM; in assay [2] it was 192 µM.

In the case of `NCCNS(=O)(=O)c1ccc(-c2ccccc2)cc1`, the IC50 is 171 µM in assay [1] and 160 µM in assay [2].

Take `O=C1N(Cc2cccnc2)CCC12CCCN(c1ncccn1)C2` (centres undefined): the IC50 in assay [1] and in assay [2] was over 50.1 µM throughout.

For `CCOC(=O)c1ccc(CN2CCOCC2)cn1`, the IC50 in assay [1] and in assay [2] was over 501 µM each time.

Regarding `Cn1nnnc1SCCNCc1ccc(Br)cc1`, the results for the IC50 in assay [1] and in assay [2] were 289 µM and 280 µM, respectively.

Turning to `CCCC1C=CCN1C(=O)c1cc(COc2ccc3c(c2)OCO3)[nH]n1` (centres undefined), the IC50 in assay [1] is 11.8 µM; in assay [2], over 50.1 µM.

As for `CCCN(CCO)CC(=O)N1CCCC(C)C1` (centres undefined), the IC50 in assay [1] and in assay [2] was over 501 µM throughout.

`CC1Cc2ccccc2N1CCN` (centres undefined): the results for the IC50 in assay [1] and in assay [2] were 204 µM and 172 µM, respectively.

Consider `CNc1cccnc1N1CCCC1`, for which the IC50 is 41.3 µM in assay [1] and 22 µM in assay [2].

As for `OC1(CNc2nc(-c3ccccc3)ns2)CCSC1` (centres undefined), the IC50 in assay [1] is 256 µM; in assay [2] it was 279 µM.

For `O=C(c1ccccn1)N1CCC2(CCCC2)CC1`, the results for the IC50 in assay [1] and in assay [2] were 160 µM and 245 µM, respectively.
